Results published in ChEMBL document CHEMBL1201862, “PubChem BioAssay data set” (2004).
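Five concentrations, 48 hours, 96-well plates. GI50 = concentration required for 50% inhibition of growth.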 Activity calls are given as the source filed them. Rule as the data show it: active = GI50 up to about 1.1 µM and inactive = higher.

Legend:
Experiment in all cases: NCI-60 cell line screen, 48 h
[1] = system: SNB-19
[2] = system: SF-268
[3] = system: HOP-92
[4] = system: MOLT-4
[5] = system: OVCAR-5
[6] = system: RPMI-8226
[7] = system: OVCAR-8
[8] = system: OVCAR-3
[9] = system: SN12C
[10] = system: NCI-H23
[11] = system: SK-MEL-28
[12] = system: TK-10
[13] = system: HCC 2998
[14] = system: SK-MEL-5
[15] = system: IGROV-1
[16] = system: CAKI-1

SMILES	GI50 [1]	GI50 [2]	GI50 [3]	GI50 [4]	GI50 [5]	GI50 [6]	GI50 [7]	GI50 [8]	GI50 [9]	GI50 [10]	GI50 [11]	GI50 [12]	GI50 [13]	GI50 [14]	GI50 [15]	GI50 [16]
CC1(C)C(=O)OC(n2cc(F)c(=O)[nH]c2=O)C1=O (stereo unspecified)	> 100 µM (inactive)	> 100 µM (inactive)	26.5 µM (inactive)	> 100 µM (inactive)	> 100 µM (inactive)	> 100 µM (inactive)	> 100 µM (inactive)	> 100 µM (inactive)	> 100 µM (inactive)	> 100 µM (inactive)	> 100 µM (inactive)	> 100 µM (inactive)	46.6 µM (inactive)	–	–	–
Cc1ccc(C2=Nc3ccccc3NC(=O)C2)cc1	> 100 µM (inactive)	> 100 µM (inactive)	26.9 µM (inactive)	> 100 µM (inactive)	> 100 µM (inactive)	–	79.8 µM (inactive)	> 100 µM (inactive)	> 100 µM (inactive)	> 100 µM (inactive)	> 100 µM (inactive)	> 100 µM (inactive)	> 100 µM (inactive)	> 100 µM (inactive)	> 100 µM (inactive)	> 100 µM (inactive)
COc1ccc(-c2cc(O)c3cc4c(cc3n2)OCO4)cc1	55.5 µM (inactive)	> 100 µM (inactive)	–	> 100 µM (inactive)	–	> 100 µM (inactive)	> 100 µM (inactive)	> 100 µM (inactive)	> 100 µM (inactive)	> 100 µM (inactive)	> 100 µM (inactive)	> 100 µM (inactive)	> 100 µM (inactive)	> 100 µM (inactive)	> 100 µM (inactive)	–
C=CCCOC(=O)CO[N+](=O)[O-]	> 100 µM (inactive)	> 100 µM (inactive)	–	> 100 µM (inactive)	> 100 µM (inactive)	> 100 µM (inactive)	> 100 µM (inactive)	> 100 µM (inactive)	> 100 µM (inactive)	> 100 µM (inactive)	> 100 µM (inactive)	> 100 µM (inactive)	> 100 µM (inactive)	–	> 100 µM (inactive)	> 100 µM (inactive)
COc1ccc(/C=C2\Cc3ccccc3C2=O)cc1OC	> 100 µM (inactive)	45.3 µM (inactive)	–	> 100 µM (inactive)	> 100 µM (inactive)	> 100 µM (inactive)	> 100 µM (inactive)	> 100 µM (inactive)	> 100 µM (inactive)	91.6 µM (inactive)	> 100 µM (inactive)	> 100 µM (inactive)	> 100 µM (inactive)	63.4 µM (inactive)	> 100 µM (inactive)	> 100 µM (inactive)
C=CC1[C@H]2COC(C)(C)O[C@@H]2CC(=O)C1(C)C (stereo partly specified)	> 100 µM (inactive)	> 100 µM (inactive)	> 100 µM (inactive)	–	> 100 µM (inactive)	–	> 100 µM (inactive)	–	> 100 µM (inactive)	> 100 µM (inactive)	> 100 µM (inactive)	> 100 µM (inactive)	> 100 µM (inactive)	–	–	> 100 µM (inactive)
N#CC1(Cc2ccccc2)CCCCN1C(=O)c1ccccc1 (stereo unspecified)	> 100 µM (inactive)	> 100 µM (inactive)	> 100 µM (inactive)	74.6 µM (inactive)	> 100 µM (inactive)	> 100 µM (inactive)	> 100 µM (inactive)	> 100 µM (inactive)	> 100 µM (inactive)	> 100 µM (inactive)	> 100 µM (inactive)	> 100 µM (inactive)	> 100 µM (inactive)	> 100 µM (inactive)	> 100 µM (inactive)	–
C#CCCCCC#Cc1ccccc1C(=O)OC	> 100 µM (inactive)	21 µM (inactive)	24.9 µM (inactive)	12.7 µM (inactive)	52.8 µM (inactive)	13.1 µM (inactive)	15.5 µM (inactive)	32.5 µM (inactive)	35 µM (inactive)	37.4 µM (inactive)	25.8 µM (inactive)	> 100 µM (inactive)	> 100 µM (inactive)	58.6 µM (inactive)	89.3 µM (inactive)	–
C[C@@H]1C[C@H]2[C@@H]3CCC4=CC(=O)C=C[C@]4(C)[C@@]3(F)[C@@H](O)C[C@]2(C)[C@@]1(O)C(=O)CO [DEXAMETHASONE]	–	–	> 100 µM (inactive)	95.1 µM (inactive)	> 100 µM (inactive)	–	> 100 µM (inactive)	> 100 µM (inactive)	< 0.01 µM (active)	> 100 µM (inactive)	> 100 µM (inactive)	> 100 µM (inactive)	–	> 100 µM (inactive)	> 100 µM (inactive)	> 100 µM (inactive)
CCOC(=O)[C@H](Cc1ccccc1)NC(=O)c1nc[nH]c1[N+](=O)[O-]	> 100 µM (inactive)	> 100 µM (inactive)	–	> 100 µM (inactive)	–	> 100 µM (inactive)	> 100 µM (inactive)	> 100 µM (inactive)	> 100 µM (inactive)	> 100 µM (inactive)	> 100 µM (inactive)	> 100 µM (inactive)	> 100 µM (inactive)	> 100 µM (inactive)	> 100 µM (inactive)	> 100 µM (inactive)
Cc1cc2c(=O)c3ccccc3[nH]c2c(C(N)=O)c1C	> 100 µM (inactive)	> 100 µM (inactive)	–	> 100 µM (inactive)	> 100 µM (inactive)	> 100 µM (inactive)	> 100 µM (inactive)	> 100 µM (inactive)	> 100 µM (inactive)	> 100 µM (inactive)	> 100 µM (inactive)	> 100 µM (inactive)	–	> 100 µM (inactive)	> 100 µM (inactive)	> 100 µM (inactive)
Nc1nc(N)c(CCCCc2ccccc2)c(C=O)n1	16.1 µM (inactive)	18.8 µM (inactive)	–	–	> 100 µM (inactive)	13.2 µM (inactive)	16.3 µM (inactive)	14.3 µM (inactive)	19.1 µM (inactive)	19 µM (inactive)	15.9 µM (inactive)	27.6 µM (inactive)	26.5 µM (inactive)	17 µM (inactive)	17.8 µM (inactive)	27.3 µM (inactive)
CCC1=CCN(c2cc(C)ccn2)OC1c1ccccc1 (stereo unspecified)	81.3 µM (inactive)	86.5 µM (inactive)	–	34.5 µM (inactive)	> 100 µM (inactive)	19.1 µM (inactive)	53.1 µM (inactive)	65.6 µM (inactive)	34.6 µM (inactive)	25.4 µM (inactive)	23.9 µM (inactive)	–	33.3 µM (inactive)	–	67.8 µM (inactive)	66.1 µM (inactive)
CC(=O)Oc1ccc(CO)cc1OC(C)=O	> 100 µM (inactive)	> 100 µM (inactive)	> 100 µM (inactive)	> 100 µM (inactive)	> 100 µM (inactive)	51.6 µM (inactive)	> 100 µM (inactive)	> 100 µM (inactive)	> 100 µM (inactive)	–	> 100 µM (inactive)	> 100 µM (inactive)	–	> 100 µM (inactive)	–	> 100 µM (inactive)
